Tests used:
Test in all cases: relative viability (nuclei count vs DMSO), 5 days (fraction); higher = more cells survive
[1] = compound: CCN1C(=O)C2=CC(=C(N=C2N(C1=O)C3CC3)N)C(=O)N + O=C(CCCCCCC(=O)Nc1ccccc1)NO [Vorinostat] (partner 1 µM)
In short: (§1)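 Nuclei were stained with Hoechst during a one-step fixation (final 0.05% Triton X-100, 1% formaldehyde, 1 ug/ml Hoechst) carried out 5 days after dosing, then counted on 4× images. The cells, lung cancer lines in 1536-well plates, had been dosed by pin tool the day after seeding with one drug alone or a fixed anchor-drug dose plus five library-drug doses (not always all listed) in √10 steps. Relative viability is the nuclei count in treated wells divided by that in vehicle wells, and each value is the median of duplicate plates.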

[2] = compound: CCN1C(=O)C2=CC(=C(N=C2N(C1=O)C3CC3)N)C(=O)N + CC(C)C[C@H](NC(=O)[C@H](Cc1ccccc1)NC(=O)c1cnccn1)B(O)O [Bortezomib] (partner 0.002 µM)
In short: as §1

[3] = compound: CCN1C(=O)C2=CC(=C(N=C2N(C1=O)C3CC3)N)C(=O)N + COc1cc2c(Oc3ccc(NC(=O)C4(C(=O)Nc5ccc(F)cc5)CC4)cc3F)ccnc2cc1OCCCN1CCOCC1 [Foretinib] (partner 0.25 µM)
In short: as §1

[4] = compound: CCN1C(=O)C2=CC(=C(N=C2N(C1=O)C3CC3)N)C(=O)N + CCNC(=O)c1noc(-c2cc(C(C)C)c(O)cc2O)c1-c1ccc(CN2CCOCC2)cc1 [Luminespib] (partner 0.01 µM)
In short: as §1

[5] = compound: CCN1C(=O)C2=CC(=C(N=C2N(C1=O)C3CC3)N)C(=O)N + Cc1cc(Nc2cc(N3CCN(C)CC3)nc(Sc3ccc(NC(=O)C4CC4)cc3)n2)n[nH]1 [Tozasertib] (partner 0.1 µM)
In short: as §1

Cell Line | relative viability ([1]; first compound 0.253 µM) | relative viability ([1]; first compound 0.8 µM) | relative viability ([1]; first compound 2.53 µM) | relative viability ([1]; first compound 8 µM) | relative viability ([2]; first compound 0.253 µM) | relative viability ([2]; first compound 0.8 µM) | relative viability ([2]; first compound 2.53 µM) | relative viability ([2]; first compound 8 µM) | relative viability ([3]; first compound 0.253 µM) | relative viability ([3]; first compound 0.8 µM) | relative viability ([3]; first compound 2.53 µM) | relative viability ([3]; first compound 8 µM) | relative viability ([4]; first compound 0.253 µM) | relative viability ([4]; first compound 0.8 µM) | relative viability ([4]; first compound 2.53 µM) | relative viability ([4]; first compound 8 µM) | relative viability ([5]; first compound 0.253 µM) | relative viability ([5]; first compound 0.8 µM) | relative viability ([5]; first compound 2.53 µM) | relative viability ([5]; first compound 8 µM)
LXF-289 | 0.798 | 0.744 | 0.825 | 0.787 | 0.987 | 0.997 | 0.966 | 0.994 | 0.995 | 1 | 0.966 | 1 | 0.693 | 0.73 | 0.661 | 0.784 | 0.127 | 0.26 | 0.206 | 0.201
NCI-H23 | 0.548 | 0.715 | 0.58 | 0.635 | 1.02 | 1.03 | 1.08 | 0.956 | 0.942 | 1.13 | 1.07 | 1.11 | 0.195 | 0.203 | 0.228 | 0.214 | 0.415 | 0.352 | 0.352 | 0.335
NCI-H322M | 1.04 | 0.758 | 1.04 | 0.931 | 1.25 | 0.701 | 1.25 | 1.14 | 0.953 | 0.958 | 0.988 | 1.1 | 0.724 | 0.934 | 0.886 | 1 | 0.526 | 0.475 | 0.493 | 0.511
NCI-H441 | 0.83 | 0.851 | 0.994 | 0.906 | 0.464 | 0.421 | 0.456 | 0.775 | 0.925 | 0.82 | 0.956 | 0.995 | 0.287 | 0.34 | 0.419 | 0.35 | 0.619 | 0.571 | 0.54 | 0.458
NCI-H460 | 0.788 | 0.74 | 0.625 | 0.688 | 1.16 | 1.03 | 0.983 | 1.23 | 0.992 | 1.04 | 0.979 | 0.943 | 0.0334 | 0.0279 | 0.0363 | 0.037 | 0.436 | 0.455 | 0.33 | 0.112
NCI-H520 | 0.719 | 0.655 | 0.717 | 0.817 | 0.574 | 0.574 | 0.743 | 0.612 | 0.544 | 0.709 | 0.827 | 0.899 | 0.236 | 0.201 | 0.246 | 0.3 | 0.426 | 0.397 | 0.382 | 0.451
NCI-H596 | 0.582 | 0.626 | 0.614 | 0.571 | – | 0.807 | 1.11 | 1.01 | 0.956 | 0.94 | 0.788 | 0.962 | 1.01 | 0.884 | 0.941 | 1.14 | 0.968 | 0.944 | 0.69 | 1.1
NCI-H647 | 0.448 | 0.477 | 0.557 | 0.862 | 0.92 | 1.05 | 0.951 | 0.784 | 1.23 | 1.14 | 1.07 | 1.23 | 0.16 | 0.129 | 0.18 | 0.14 | 0.33 | 0.304 | 0.273 | 0.277
NCI-H650 | 0.565 | 0.313 | 0.408 | 0.421 | 1.03 | 0.701 | 0.935 | 0.701 | 0.969 | 1.04 | 0.954 | 0.944 | 0.66 | 0.821 | 0.712 | 0.78 | 0.704 | 0.759 | 0.67 | 0.702
NCI-H661 | 0.758 | 0.788 | 0.748 | 0.803 | 0.809 | 0.9 | 0.793 | 0.942 | 0.989 | 1.08 | 0.939 | 1.01 | 0.922 | 0.904 | 0.898 | 0.904 | 0.339 | 0.356 | 0.354 | 0.335
NCI-H727 | 1.27 | 1.11 | 1.26 | 1.07 | 0.806 | 0.843 | 0.805 | 0.875 | 1.06 | 0.889 | 0.888 | 1.23 | 0.238 | 0.309 | 0.394 | 0.321 | 0.534 | 0.71 | 0.608 | 0.603
NCI-H838 | 0.756 | 0.694 | 0.692 | 0.752 | 0.857 | 0.887 | 0.891 | 0.912 | 1.07 | 0.989 | 0.868 | 0.926 | 0.262 | 0.334 | 0.214 | 0.336 | 0.258 | 0.203 | 0.28 | 0.234
NCI-H1355 | 0.626 | 0.662 | 0.636 | 0.674 | 1.22 | 1.3 | 1.22 | 1.25 | 0.996 | 1.01 | 0.963 | 0.937 | 0.652 | 0.887 | 0.761 | 0.753 | 0.587 | 0.616 | 0.509 | 0.515
NCI-H1437 | 0.845 | 0.804 | 0.756 | 0.808 | 0.489 | 0.543 | 0.515 | 0.618 | 1.23 | 1.21 | 1.19 | 1.21 | 1.1 | 1.06 | 1.1 | 1.16 | 0.378 | 0.42 | 0.374 | 0.411
NCI-H1650 | 0.562 | 0.614 | 0.494 | 0.622 | 0.192 | 0.185 | 0.182 | 0.187 | 0.913 | 1.15 | 0.955 | 1.12 | 0.185 | 0.196 | 0.162 | 0.186 | 0.394 | 0.404 | 0.38 | 0.342
NCI-H1651 | 0.571 | 0.493 | 0.55 | 0.462 | 0.996 | 0.897 | 0.964 | 0.858 | 0.921 | 0.838 | 0.656 | 0.772 | 0.856 | 0.813 | 0.874 | 0.885 | 0.622 | 0.586 | 0.631 | 0.508

Reference: the supplement of paper PMC10307832
